Measurements: paper PMC9719539, “Single-molecule characterization of subtype-specific β1 integrin mechanics” (Nature Communications, 2022)

Experiments:
integrin α5β1 (EO state) = conditions: extended-open conformation; read-out: affinity for α5β1 in extended-open conformation; cited from earlier work
Description: The response of the cytoskeletal machinery is thus not predetermined by cell type, but is highly regulatable by the type of ligand outside the cell. […] Further, by using 264 the specific panels of antibodies, the authors claim that RGD-based adhesion and spreading is dominated by 265 aVb1 integrin in their RGD-dependent system.

[1] = test system: integrin α5β1 on intact cells; conditions: ref Li et al., 2017; read-out: affinity to α5β1 on intact cells; cited from earlier work
Description: For inhibition studies we used a different subset of inhibitory IPI and Biogen Fabs with RGD-mimetic heavy chain CDR3 sequences (Supplementary Table 1). […] They show selectivities for αVβ1, αVβ3 and αVβ5 ranging from 160 fold to 2000 fold. […] As we show in Fig.5, even though α5β1 has the highest 316 expression level among all the RGD-binding integrins expressed on BJ-5ta cell, it could not mediate cell 317 adhesion and spreading on the cyclo- ...

[2] = target: T1, EO state of integrin α5β1 (Homo sapiens, UniProt P05556+P08648); assay: Intrinsic affinity for EO state of α5β1 stabilized by 12G10 Fab; assay type: binding; conditions: 2 µM 12G10 Fab versus basal
T1 construct: endogenous in cells; host or cells: K562 wild type
T1 sequence (P08648 42-894 limits assumed): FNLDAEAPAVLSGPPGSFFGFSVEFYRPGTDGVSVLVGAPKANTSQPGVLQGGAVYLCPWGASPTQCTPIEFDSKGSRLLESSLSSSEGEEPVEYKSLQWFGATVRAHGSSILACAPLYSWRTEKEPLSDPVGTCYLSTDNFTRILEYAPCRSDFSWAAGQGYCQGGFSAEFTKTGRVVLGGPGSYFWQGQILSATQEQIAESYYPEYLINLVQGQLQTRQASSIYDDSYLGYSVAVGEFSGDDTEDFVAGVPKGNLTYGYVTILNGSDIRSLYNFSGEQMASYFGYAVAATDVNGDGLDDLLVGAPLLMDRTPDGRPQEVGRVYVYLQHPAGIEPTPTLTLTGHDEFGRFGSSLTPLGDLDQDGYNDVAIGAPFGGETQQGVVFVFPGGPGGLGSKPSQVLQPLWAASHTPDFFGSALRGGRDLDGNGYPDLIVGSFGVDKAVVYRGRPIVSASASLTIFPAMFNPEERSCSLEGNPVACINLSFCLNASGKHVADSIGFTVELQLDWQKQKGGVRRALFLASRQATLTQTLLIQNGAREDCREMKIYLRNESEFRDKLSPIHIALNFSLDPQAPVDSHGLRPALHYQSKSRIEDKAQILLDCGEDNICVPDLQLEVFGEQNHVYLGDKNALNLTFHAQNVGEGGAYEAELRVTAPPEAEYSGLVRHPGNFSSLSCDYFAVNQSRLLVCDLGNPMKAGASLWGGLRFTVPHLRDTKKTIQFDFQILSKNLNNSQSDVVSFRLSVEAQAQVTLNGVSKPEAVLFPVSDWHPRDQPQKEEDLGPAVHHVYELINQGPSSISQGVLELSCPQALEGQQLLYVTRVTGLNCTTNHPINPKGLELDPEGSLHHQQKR
T1 sequence (P08648 895-1049 partner limits assumed): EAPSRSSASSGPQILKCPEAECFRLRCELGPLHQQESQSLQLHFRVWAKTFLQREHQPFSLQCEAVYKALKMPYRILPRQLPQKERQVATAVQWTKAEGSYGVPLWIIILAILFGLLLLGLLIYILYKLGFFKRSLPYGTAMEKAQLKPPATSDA
T1 sequence (P05556 21-798): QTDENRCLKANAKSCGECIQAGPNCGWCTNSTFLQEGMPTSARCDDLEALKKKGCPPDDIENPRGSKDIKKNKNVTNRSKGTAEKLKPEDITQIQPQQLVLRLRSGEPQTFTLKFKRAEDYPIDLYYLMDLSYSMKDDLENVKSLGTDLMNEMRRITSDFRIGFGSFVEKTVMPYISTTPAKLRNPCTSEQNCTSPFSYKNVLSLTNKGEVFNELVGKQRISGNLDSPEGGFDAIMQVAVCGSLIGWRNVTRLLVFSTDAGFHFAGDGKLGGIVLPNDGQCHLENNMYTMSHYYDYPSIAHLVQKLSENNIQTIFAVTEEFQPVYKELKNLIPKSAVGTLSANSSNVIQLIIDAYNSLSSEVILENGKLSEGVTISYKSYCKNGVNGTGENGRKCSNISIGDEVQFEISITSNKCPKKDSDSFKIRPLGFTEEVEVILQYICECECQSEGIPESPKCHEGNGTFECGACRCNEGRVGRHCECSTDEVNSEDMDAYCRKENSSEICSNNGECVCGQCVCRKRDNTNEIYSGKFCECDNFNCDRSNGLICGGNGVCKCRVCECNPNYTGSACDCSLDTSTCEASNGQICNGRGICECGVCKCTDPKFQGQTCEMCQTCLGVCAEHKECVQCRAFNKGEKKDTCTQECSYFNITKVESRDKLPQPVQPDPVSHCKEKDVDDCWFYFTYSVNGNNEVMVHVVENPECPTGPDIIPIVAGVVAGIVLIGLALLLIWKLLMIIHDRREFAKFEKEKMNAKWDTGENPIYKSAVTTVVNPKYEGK
Description: (§1) provided as a Source Data file.
(§2) (3 pictures or pasted objects on this page, not shown here)

BJ-5ta cells [3] = assay: Percentage of cells producing rupture signals on RGD-12pN with or without soluble cRGDfK; assay type: cell-based, human; conditions: RGD-12pN (BHQ2-Cy3, 100 nM); soluble ligand 100 µM; n = 4
Description: Source data are provided as a Source Data file. […]

[4] = target: T2, EO state of integrin αVβ1 (Homo sapiens, UniProt P05556+P06756); assay: Intrinsic affinity for EO state of αVβ1 stabilized by 12G10 Fab; assay type: binding; conditions: 2 µM 12G10 Fab versus basal
T2 construct: expressed in transfected cells
T2 sequence (P06756 31-889 limits assumed): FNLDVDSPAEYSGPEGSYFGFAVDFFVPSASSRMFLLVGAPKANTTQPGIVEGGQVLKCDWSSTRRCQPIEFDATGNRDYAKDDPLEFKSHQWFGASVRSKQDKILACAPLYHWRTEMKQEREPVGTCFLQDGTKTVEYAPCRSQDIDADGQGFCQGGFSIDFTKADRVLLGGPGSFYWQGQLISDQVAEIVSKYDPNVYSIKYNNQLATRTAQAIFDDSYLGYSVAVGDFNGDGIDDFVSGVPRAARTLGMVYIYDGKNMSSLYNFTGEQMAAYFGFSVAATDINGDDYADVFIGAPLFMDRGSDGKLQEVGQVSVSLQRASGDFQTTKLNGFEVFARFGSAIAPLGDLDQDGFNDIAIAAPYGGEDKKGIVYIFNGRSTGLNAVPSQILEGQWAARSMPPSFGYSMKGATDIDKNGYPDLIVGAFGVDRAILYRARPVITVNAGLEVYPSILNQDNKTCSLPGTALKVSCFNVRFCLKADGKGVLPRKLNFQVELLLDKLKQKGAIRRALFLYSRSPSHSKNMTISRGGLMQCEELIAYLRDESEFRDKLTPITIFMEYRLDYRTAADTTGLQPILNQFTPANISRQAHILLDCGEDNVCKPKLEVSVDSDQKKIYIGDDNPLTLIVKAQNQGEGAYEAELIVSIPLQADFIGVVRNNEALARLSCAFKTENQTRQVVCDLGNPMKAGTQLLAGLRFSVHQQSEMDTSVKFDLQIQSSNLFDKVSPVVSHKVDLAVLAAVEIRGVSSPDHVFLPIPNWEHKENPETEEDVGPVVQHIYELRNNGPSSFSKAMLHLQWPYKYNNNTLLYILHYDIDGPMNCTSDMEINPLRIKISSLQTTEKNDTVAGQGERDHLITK
T2 sequence (P06756 891-1048 partner limits assumed): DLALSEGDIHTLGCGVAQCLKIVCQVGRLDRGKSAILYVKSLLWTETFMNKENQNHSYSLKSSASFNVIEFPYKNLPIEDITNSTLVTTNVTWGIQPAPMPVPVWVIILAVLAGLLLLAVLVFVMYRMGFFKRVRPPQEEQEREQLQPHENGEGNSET
T2 sequence (P05556 21-798): as the sequence (P05556 21-798) above
Description: as §1, §2

[5] = test system: extended-open β1 integrin on BJ-5ta cells; assay: β1 integrin activation: number and density of bound AF647-12G10 Fab on biotin-PEG-cholesterol immobilized cells; assay type: cell-based, human
Procedure: Cholesterol (CLS) linked to biotin with PEG (~13 nm) immobilizes cells on neutravidin and TGT-coated surfaces. b Cell images and AF647-12G10 Fab (20 nM) signal 1 h after seeding. Scale bar, 10 µm. c–e Cell area and 12G10 Fab signal were measured 30 min after seeding (n = 43, 55, 62, 69, 21, 29; 83, 59, 83, 92, 68, 62 cells from two independent experiments). c Close-contact enclosed area of cells. […] Fluorescent Fab signal was calibrated by analyzing stepwise signal increase due to nonspecific Fab binding to surfaces outside the area imaged with cells (Supplementary Fig. 4a). e Density of 12G10 Fab for each cell. Lines show mean ± SE. Two-sided t-test for p-values. Not significant (ns), p > 0.05.
The cells were gently harvested by washing in PBS for 1 min, incubating with 0.05% trypsin for 3 min, and then neutralizing with cell culture medium (FBS 10%). […] A Nikon Eclipse Ti microscope equipped with Xenon arc lamp, Nikon perfect focus system, custom total internal reflection fluorescence microscopy (TIRFM) module, and custom reflection interference contrast microscopy (RICM) module was driven by Elements software. […] Images were recorded using an electron-multiplying charge-coupled device (EMCCD; Andor iXon 888). […]

BJ-5ta cells [6] = assay: Percentage of spread cells / cell spreading on TGT surfaces; assay type: cell-based, human
Procedure: Glass coverslips were densely PEGylated to minimize non-specific interactions such as the binding of cell-secreted extracellular matrix proteins. Coverslips cleaned by piranha etching solution (a 3:1 mixture of sulfuric acid and hydrogen peroxide) were incubated in silanization solution (UCT, 1760-24-3; 2% aminosilane and 5% acetic acid in methanol) for 30 min and reacted with a mixture of Polyethylene glycol (PEG) with and without biotin (1:19, 150 mg/ml; Laysan Bio, Biotin-PEG-SVA-5000 and MPEG-SVA-5000) for 4 h. Surfaces were washed thoroughly and dried using nitrogen gas after each step. A 3D-printed dish (PLA) or a silicon gasket (Grace Bio Labs, 103280) was attached to the coverslip to form a dish. Neutravidin (Thermo Fisher scientific, 31000; 0.4 mg/ml) was added to the dish for 10 min and washed out thoroughly. The dish was emptied and a droplet (3 µL) of TGT solution (100 nM unless specified otherwise) was placed on the coverslip for 10 min in a humid condition to locally immobilize TGT. For the lateral drift correction for time-resolved TGT rupture analysis, biotin-coated gold nanoparticles (Luna Nanotech, GNP-BIOT-100-2-04; 100 nm) were sparsely immobilized as fiducial markers. For protein ligand coating, protein (50 ug/ml in PBS) was incubated in glass bottomed imaging dishes for 1 h at RT without additional passivation.
The cells were gently harvested by washing in PBS for 1 min, incubating with 0.05% trypsin for 3 min, and then neutralizing with cell culture medium (FBS 10%). The cells were spun down and resuspended with Leibovitz’s L-15 Medium (Gibco, 21083027) supplemented with 2 g/L glucose, then seeded on the TGT surface at an approximate density of 30 cells/mm^2. For integrin inhibition experiments, cells were incubated with Fab for 5 min before seeding. For cell immobilization experiments, cells were incubated with 1 nM Cholesterol-PEG-Biotin (Nanosoft Polymers, 3084-2000) for 5 min, followed by washes by centrifugation to remove biotin in solution before seeding. The imaging area was humidified and the temperature was maintained at 37 °C. A Nikon Eclipse Ti microscope equipped with Xenon arc lamp, Nikon perfect focus system, custom total internal reflection fluorescence microscopy (TIRFM) module, and custom reflection interference contrast microscopy (RICM) module was driven by Elements software. Dark regions in RICM show where cells have closely adhered to the surface (≪300 nm gap). Nikon 10X objective (CFI60 Plan Fluor) and 60X objective (CFI60 Apochromat TIRF) with DIC filter sets were used. […] Images were recorded using an electron-multiplying charge-coupled device (EMCCD; Andor iXon 888).
Single-cell data were obtained from multiple independent sample preparations for each condition as specified. Percentage of spread cells was obtained from three independent experiments. Statistical analyses were performed using MATLAB software. Two-sided (two sample) t-test was used for two group comparisons. Each group was compared with the control group unless specified otherwise. Representative micrographs are selected from at least two independent experiments.

BJ-5ta fibroblasts = assay: Spreading of BJ-5ta fibroblasts on linear GRRGD-TGT (peer review file); assay type: cell-based, human; conditions: 100 nM, 1 h
Procedure: RGT-TGTs is reproduced using the linear RGD, showing that the high tension threshold for cell spreading is not an artifact of ligand cyclization.
Figure R5 | BJ-5ta fibroblasts on linear RGD ligand surfaces. Cells were seeded for one hour on TGTs conjugated […]
with a linear RGD peptide ([…]; GRRGD-TGT). GRRGD-TGT (100 nM) was immobilized on […]
PEG-passivated and neutravidin functionalized surface. GRRGD-54pN was incubated without neutravidin for control. Images (left) and cell area measured from RICM images (right) are shown. Scale bar, 10 μm. […]

cyclic-ACRGDGWCGK (disulfide)
Kd (integrin α5β1 (EO state)): 2.2 ± 0.5 nM

fibronectin
Kd [1]: 1100 nM

N=C(N)NCCC[C@@H]1NC(=O)[C@H](CCCCN)NC(=O)[C@@H](Cc2ccccc2)NC(=O)[C@H](CC(=O)O)NC(=O)CNC1=O [cRGDfK, cyclo[Arg-Gly-Asp-D-Phe-Lys]]
EO affinity over basal affinity, α5β1 [2]: 7000 fold | rupture signal with soluble cRGDfK (in words) (BJ-5ta cells [3]): No cellproduced a significant rupture signal | EO affinity over basal affinity, αVβ1 [4]: 60 fold | force needed for activation of β1 integrin to high affinity state [5]: less than 12 pN | tension threshold for cell spreading (BJ-5ta cells [6]; 1 h, nominal Ttol): > 33 pN | spread cells (fraction), sheet 1c (BJ-5ta cells [6]; TGT 1 nM): 0.00565 | spread cells (fraction), sheet 1c (BJ-5ta cells [6]; TGT 3 nM): 0.03764 | spread cells (fraction), sheet 1c (BJ-5ta cells [6]; TGT 10 nM): 0.4242 | spread cells (fraction), sheet 1c (BJ-5ta cells [6]; TGT 30 nM): 0.8968 | spread cells (fraction), sheet 1c (BJ-5ta cells [6]; TGT 100 nM): 0.9524 | Spread cells on TGT, 12pN (BJ-5ta cells [6]; Ttol 12pN, 1 h, mean, SE in own column, n = 3 independent experiments, given as fraction): 0.00901 | Spread cells on TGT, 23pN (BJ-5ta cells [6]; Ttol 23pN, 1 h, mean, n = 3, given as fraction): 0.05 | Spread cells on TGT, 33pN (BJ-5ta cells [6]; Ttol 33pN, 1 h, mean, n = 3, given as fraction): 0.0778 | Spread cells on TGT, 43pN (BJ-5ta cells [6]; Ttol 43pN, 1 h, mean, n = 3, given as fraction): 0.8932 | Spread cells on TGT, 54pN (BJ-5ta cells [6]; Ttol 54pN, 1 h, mean, n = 3, given as fraction): 0.9524

GRRGDLATIHGGK [GRRGD-TGT]
spreading on linear RGD-TGT (in words) (BJ-5ta fibroblasts): no spreading for weak TGTs, with tension tolerance below 40 pN
